The values that follow come from patent US10221197B2, “Phosphatidylinositol 3-kinase inhibitors” (Gilead Sciences, Inc., priority 2014, dated 2019).

Format in all cases: biochemical
Assay [1] deals with PI3Kδ (Homo sapiens (Human), UniProt O00329). The assay is described as follows: TR-FRET enzymatic assay of PI3K isoforms (PI3Kδ). Particulars: 2×Km ATP, 2 μM PIP2, incubated for 30 minutes at 25° C., read-out: δ IC50. The method, then: (§1) The compounds of formula (I) were characterized for their enzymatic activity against the PI3K isoforms. Certain compounds of the present application, including certain compounds of formula (II) and (III) were also characterized for their enzymatic activity against PI3K isoforms. The activities were measured using a time-resolved fluorescence resonance energy transfer (TR-FRET) assay.
Sequence of PI3Kδ (O00329 whole entry, canonical isoform): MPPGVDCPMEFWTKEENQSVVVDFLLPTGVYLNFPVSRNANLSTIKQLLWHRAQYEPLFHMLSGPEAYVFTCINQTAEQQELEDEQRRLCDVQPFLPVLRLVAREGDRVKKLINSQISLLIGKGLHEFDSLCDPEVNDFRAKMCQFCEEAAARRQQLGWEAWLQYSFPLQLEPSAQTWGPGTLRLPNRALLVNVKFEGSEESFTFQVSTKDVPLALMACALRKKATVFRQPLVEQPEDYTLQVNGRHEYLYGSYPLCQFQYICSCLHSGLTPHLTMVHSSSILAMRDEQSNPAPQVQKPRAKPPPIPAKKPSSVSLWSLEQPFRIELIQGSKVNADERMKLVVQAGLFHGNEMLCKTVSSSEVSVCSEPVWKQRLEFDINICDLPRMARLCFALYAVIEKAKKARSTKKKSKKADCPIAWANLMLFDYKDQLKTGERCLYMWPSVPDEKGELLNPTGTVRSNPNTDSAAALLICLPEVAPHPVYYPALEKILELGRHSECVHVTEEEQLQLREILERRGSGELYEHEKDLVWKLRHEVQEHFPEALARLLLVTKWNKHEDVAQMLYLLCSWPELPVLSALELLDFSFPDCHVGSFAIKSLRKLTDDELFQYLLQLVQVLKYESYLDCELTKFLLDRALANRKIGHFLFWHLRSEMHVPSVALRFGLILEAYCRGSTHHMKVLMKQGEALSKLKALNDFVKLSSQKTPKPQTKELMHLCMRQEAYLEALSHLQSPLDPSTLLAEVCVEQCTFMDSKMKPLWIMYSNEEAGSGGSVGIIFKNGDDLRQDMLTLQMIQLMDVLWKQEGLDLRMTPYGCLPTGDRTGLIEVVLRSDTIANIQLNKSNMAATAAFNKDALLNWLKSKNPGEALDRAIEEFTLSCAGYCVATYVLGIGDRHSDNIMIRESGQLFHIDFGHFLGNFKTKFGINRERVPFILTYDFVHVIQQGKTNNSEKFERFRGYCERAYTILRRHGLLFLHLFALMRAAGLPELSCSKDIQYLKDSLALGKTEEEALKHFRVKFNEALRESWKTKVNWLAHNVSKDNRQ
Sequence of PI3Kδ (P27986 whole entry partner, canonical isoform): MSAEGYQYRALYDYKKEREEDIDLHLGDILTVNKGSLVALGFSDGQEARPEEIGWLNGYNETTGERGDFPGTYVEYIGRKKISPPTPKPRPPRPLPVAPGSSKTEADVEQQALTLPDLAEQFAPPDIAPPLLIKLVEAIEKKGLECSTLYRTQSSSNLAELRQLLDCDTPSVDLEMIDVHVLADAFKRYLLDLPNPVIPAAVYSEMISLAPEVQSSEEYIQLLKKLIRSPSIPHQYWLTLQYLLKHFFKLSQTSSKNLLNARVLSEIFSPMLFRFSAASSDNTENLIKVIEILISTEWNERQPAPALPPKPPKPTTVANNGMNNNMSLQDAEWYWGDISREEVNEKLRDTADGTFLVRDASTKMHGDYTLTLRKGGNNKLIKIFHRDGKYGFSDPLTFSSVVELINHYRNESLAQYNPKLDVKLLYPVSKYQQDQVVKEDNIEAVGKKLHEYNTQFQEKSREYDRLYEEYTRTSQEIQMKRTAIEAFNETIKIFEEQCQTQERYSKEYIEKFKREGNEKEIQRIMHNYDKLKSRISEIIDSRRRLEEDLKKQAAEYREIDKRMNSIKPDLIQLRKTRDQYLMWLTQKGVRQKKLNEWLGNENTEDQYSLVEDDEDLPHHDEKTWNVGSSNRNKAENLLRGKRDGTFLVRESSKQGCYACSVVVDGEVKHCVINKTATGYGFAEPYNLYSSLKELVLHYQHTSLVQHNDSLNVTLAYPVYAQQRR
On the technique in general: In TR-FRET formats the signal depends on donor and acceptor labels being close together.

The target in assay [2] is PI3Kγ (Homo sapiens (Human), UniProt P48736). In words: TR-FRET enzymatic assay of PI3K isoforms (PI3Kγ). The settings on record: TR-FRET, 2×Km ATP, 2 μM PIP2, PI3Kγ at 2 nM, incubated for 30 minutes at 25° C.; read-out: γ IC50. How it is done:
as §1

The target in assay [3] is PI3Kβ (Homo sapiens (Human), UniProt P42338). In words: TR-FRET enzymatic assay of PI3K isoforms (PI3Kβ). The settings on record: TR-FRET, 2×Km ATP, 2 μM PIP2, incubated for 30 minutes at 25° C.; read-out: β IC50. The method, then:
as §1

Sequence of PI3Kβ (P42338 whole entry, canonical isoform): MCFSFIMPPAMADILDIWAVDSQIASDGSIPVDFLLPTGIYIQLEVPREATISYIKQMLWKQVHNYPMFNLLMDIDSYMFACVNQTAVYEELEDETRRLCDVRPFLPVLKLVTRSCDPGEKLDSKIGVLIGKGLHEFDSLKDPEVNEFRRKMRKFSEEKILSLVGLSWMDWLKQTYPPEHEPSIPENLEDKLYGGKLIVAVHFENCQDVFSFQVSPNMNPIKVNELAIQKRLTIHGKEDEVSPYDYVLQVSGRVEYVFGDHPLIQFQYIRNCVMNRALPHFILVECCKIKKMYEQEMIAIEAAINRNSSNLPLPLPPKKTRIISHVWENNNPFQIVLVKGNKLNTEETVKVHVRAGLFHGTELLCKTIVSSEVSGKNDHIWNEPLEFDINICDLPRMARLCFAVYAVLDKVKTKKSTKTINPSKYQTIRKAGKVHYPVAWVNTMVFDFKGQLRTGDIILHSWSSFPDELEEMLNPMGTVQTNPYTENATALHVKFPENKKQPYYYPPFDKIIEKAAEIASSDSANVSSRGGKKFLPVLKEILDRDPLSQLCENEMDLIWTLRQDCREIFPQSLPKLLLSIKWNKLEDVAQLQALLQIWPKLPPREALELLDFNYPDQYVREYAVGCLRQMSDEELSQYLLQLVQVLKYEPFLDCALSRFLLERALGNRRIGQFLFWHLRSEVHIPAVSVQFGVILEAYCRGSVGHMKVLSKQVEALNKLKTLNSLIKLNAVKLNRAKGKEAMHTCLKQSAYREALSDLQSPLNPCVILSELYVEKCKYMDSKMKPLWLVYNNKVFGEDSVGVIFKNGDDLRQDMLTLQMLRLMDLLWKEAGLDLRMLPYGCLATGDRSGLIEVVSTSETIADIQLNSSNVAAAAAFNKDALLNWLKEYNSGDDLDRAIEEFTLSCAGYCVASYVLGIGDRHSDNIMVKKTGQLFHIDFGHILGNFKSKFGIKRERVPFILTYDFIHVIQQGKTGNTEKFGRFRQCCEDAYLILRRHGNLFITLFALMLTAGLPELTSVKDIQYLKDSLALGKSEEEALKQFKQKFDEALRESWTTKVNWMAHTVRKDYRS
Sequence of PI3Kβ (P27986 whole entry partner, canonical isoform): as the sequence (P27986 whole entry partner, canonical isoform) above
Sequence of PI3Kγ (P48736 whole entry, canonical isoform): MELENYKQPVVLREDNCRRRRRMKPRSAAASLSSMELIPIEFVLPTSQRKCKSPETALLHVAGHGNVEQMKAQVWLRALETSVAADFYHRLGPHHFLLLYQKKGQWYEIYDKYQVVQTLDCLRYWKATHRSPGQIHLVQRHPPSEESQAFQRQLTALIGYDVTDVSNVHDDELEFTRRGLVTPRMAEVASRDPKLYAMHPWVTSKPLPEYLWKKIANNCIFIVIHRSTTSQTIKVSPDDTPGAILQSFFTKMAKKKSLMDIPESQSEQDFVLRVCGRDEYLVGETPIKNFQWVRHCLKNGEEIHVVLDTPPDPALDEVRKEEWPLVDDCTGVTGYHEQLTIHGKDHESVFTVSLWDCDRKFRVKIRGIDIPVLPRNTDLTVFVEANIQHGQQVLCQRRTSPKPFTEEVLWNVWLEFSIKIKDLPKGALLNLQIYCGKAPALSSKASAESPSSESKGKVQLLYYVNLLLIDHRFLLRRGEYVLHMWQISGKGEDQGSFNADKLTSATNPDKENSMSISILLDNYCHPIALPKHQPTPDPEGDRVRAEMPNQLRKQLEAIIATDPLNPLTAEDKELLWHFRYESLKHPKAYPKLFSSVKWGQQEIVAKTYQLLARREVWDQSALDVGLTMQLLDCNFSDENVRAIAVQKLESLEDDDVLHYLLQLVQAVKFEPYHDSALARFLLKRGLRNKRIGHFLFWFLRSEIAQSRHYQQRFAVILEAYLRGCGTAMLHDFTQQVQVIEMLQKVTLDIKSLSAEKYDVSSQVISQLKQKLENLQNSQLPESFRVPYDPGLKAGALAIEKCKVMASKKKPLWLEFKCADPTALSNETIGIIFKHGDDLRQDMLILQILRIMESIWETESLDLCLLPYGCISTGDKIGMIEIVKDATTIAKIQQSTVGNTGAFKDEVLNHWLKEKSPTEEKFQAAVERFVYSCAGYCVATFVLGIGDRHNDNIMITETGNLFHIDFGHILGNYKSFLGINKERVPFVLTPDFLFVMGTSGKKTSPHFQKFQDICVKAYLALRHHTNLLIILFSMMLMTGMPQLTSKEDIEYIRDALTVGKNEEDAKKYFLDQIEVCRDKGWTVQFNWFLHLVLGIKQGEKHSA
Sequence of PI3Kγ (Q8WYR1 whole entry partner, canonical isoform): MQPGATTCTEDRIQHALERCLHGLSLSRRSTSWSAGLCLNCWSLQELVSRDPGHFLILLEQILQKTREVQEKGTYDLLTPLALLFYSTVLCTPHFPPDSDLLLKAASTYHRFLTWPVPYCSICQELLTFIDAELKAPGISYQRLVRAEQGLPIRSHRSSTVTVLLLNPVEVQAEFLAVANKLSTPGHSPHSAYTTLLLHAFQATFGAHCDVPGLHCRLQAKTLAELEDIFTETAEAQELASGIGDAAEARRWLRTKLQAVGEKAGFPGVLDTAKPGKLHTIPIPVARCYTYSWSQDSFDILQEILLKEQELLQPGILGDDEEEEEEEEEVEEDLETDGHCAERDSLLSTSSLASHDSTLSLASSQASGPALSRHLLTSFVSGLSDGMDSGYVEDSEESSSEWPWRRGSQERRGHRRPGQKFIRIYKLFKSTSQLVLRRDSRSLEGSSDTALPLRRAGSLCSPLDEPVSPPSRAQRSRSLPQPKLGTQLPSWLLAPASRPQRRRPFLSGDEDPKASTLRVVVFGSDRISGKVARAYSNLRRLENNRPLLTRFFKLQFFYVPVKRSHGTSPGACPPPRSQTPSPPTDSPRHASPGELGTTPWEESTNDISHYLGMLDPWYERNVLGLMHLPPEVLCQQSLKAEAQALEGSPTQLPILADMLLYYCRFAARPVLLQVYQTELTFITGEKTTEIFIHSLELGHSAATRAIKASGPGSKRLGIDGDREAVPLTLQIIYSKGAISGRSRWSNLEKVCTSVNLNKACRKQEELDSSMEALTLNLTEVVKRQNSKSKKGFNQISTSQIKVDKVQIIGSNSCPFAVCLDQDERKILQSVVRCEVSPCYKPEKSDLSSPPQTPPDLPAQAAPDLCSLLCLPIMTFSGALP

The term IC50 denotes the point on the concentration scale where inhibition reaches its midpoint. With `CCNC(=O)Nc1cccc(-n2c([C@H](C)Nc3ncnc(N)c3C#N)nc3cccc(Cl)c3c2=O)c1Cl` (single isomer, unassigned) [Compound 94], the IC50 in assay [1] is 78 nM; in assay [2] it was > 10000 nM; in assay [3], 5500 nM.

Consider `CCNC(=O)Nc1cccc(-n2c([C@H](C)Nc3ncnc(N)c3C#N)nc3cccc(Cl)c3c2=O)c1Cl` (single isomer, unassigned) [Compound 95], for which the IC50 in assay [1] is 5 nM; in assay [2] it was 1000 nM; in assay [3] it was 59 nM.

Consider `C[C@H](Nc1nc(N)nc(N)c1Cl)c1nc2cccc(Cl)c2c(=O)n1-c1cccc(C(N)=O)c1` [Compound 1, (S)-3-(5-chloro-2-(1-((2,6-diamino-5-chloropyrimidin-4-yl)amino)ethyl)-4-oxoquinazolin-3(4H)-yl)benzamide], for which the IC50 stood at 0.7 nM in assay [1], 1300 nM in assay [2] and 14 nM in assay [3].

On to `C[C@H](Nc1nc(N)nc(N)c1C#N)c1nc2cccc(Cl)c2c(=O)n1-c1cccc(C(N)=O)c1` [Compound 2, (S)-3-(5-chloro-2-(1-((2,6-diamino-5-cyanopyrimidin-4-yl)amino)ethyl)-4-oxoquinazolin-3(4H)-yl)benzamide], for which the IC50 in assay [1] was 0.5 nM; in assay [2], 60 nM; in assay [3] it was 6 nM.

For `C[C@H](Nc1nc(N)nc(N)c1C#N)c1nc2c(Cl)ccc(Cl)c2c(=O)n1-c1cccc(C(N)=O)c1` [Compound 3, (S)-3-(5,8-dichloro-2-(1-((2,6-diamino-5-cyanopyrimidin-4-yl)amino)ethyl)-4-oxoquinazolin-3(4H)-yl)benzamide], the IC50 in assay [1] is 0.8 nM; in assay [2], 460 nM; in assay [3] it was 12 nM.

As to `C[C@H](Nc1nc(N)nc(N)c1Cl)c1nc2c(Cl)ccc(Cl)c2c(=O)n1-c1cccc(C(N)=O)c1` [Compound 4, (S)-3-(5,8-dichloro-2-(1-((2,6-diamino-5-chloropyrimidin-4-yl)amino)ethyl)-4-oxoquinazolin-3(4H)-yl)benzamide], the IC50 in assay [1] came out at 1 nM; in assay [2], 4400 nM; in assay [3] it was 29 nM.

On to `CC[C@H](Nc1nc(N)nc(N)c1Cl)c1nc2cccc(Cl)c2c(=O)n1-c1cccc(C(N)=O)c1` [Compound 7, (S)-3-(5-chloro-2-(1-((2,6-diamino-5-chloropyrimidin-4-yl)amino)propyl)-4-oxoquinazolin-3(4H)-yl)benzamide], for which the IC50 was 1 nM in assay [1], 2700 nM in assay [2] and 7 nM in assay [3].

As to `CC[C@H](Nc1nc(N)nc(N)c1C#N)c1nc2cccc(Cl)c2c(=O)n1-c1cccc(C(N)=O)c1` [Compound 8, (S)-3-(5-chloro-2-(1-((2,6-diamino-5-cyanopyrimidin-4-yl)amino)propyl)-4-oxoquinazolin-3(4H)-yl)benzamide], the IC50 in assay [1] came to 0.4 nM; in assay [2] it was 200 nM; in assay [3] it was 2 nM.

Turning to `N#Cc1c(N)nc(N)nc1N[C@H](c1nc2cccc(Cl)c2c(=O)n1-c1cccc(C(N)=O)c1)C1CC1` [Compound 9, (S)-3-(5-chloro-2-(cyclopropyl((2,6-diamino-5-cyanopyrimidin-4-yl)amino)methyl)-4-oxoquinazolin-3(4H)-yl)benzamide], the IC50 is 0.6 nM in assay [1], 220 nM in assay [2] and 2 nM in assay [3].

Turning to `NC(=O)c1cccc(-n2c([C@@H](Nc3nc(N)nc(N)c3Cl)C3CC3)nc3cccc(Cl)c3c2=O)c1` [Compound 10, (S)-3-(5-chloro-2-(cyclopropyl((2,6-diamino-5-chloropyrimidin-4-yl)amino)methyl)-4-oxoquinazolin-3(4H)-yl)benzamide], the IC50 in assay [1] is 1 nM; in assay [2], 2700 nM; in assay [3], 7 nM.

As for `NC(=O)c1cccc(-n2c([C@@H](Nc3nc(N)nc(N)c3Cl)C3CC3)nc3c(Cl)ccc(Cl)c3c2=O)c1` [Compound 11, (S)-3-(5,8-dichloro-2-(cyclopropyl((2,6-diamino-5-chloropyrimidin-4-yl)amino)methyl)-4-oxoquinazolin-3(4H)-yl)benzamide], the IC50 turned out to be 3 nM in assay [1], 8500 nM in assay [2] and 37 nM in assay [3].

In the case of `N#Cc1c(N)nc(N)nc1N[C@H](c1nc2c(Cl)ccc(Cl)c2c(=O)n1-c1cccc(C(N)=O)c1)C1CC1` [Compound 12, (S)-3-(5,8-dichloro-2-(cyclopropyl((2,6-diamnino-5-cyanopyrimidin-4-yl)amino)methyl)-4-oxoquinazolin-3(4H)-yl)benzamide], the IC50 in assay [1] turned out to be 0.3 nM; in assay [2] it was 230 nM; in assay [3] it was 6 nM.

For `Cc1nc(N)nc(N[C@H](c2nc3c(F)ccc(Cl)c3c(=O)n2-c2cccc(C(N)=O)c2)C2CC2)c1C#N` [Compound 14, (S)-3-(2-(((2-amino-5-cyano-6-methylpyrimidin-4-yl)amino)(cyclopropyl)methyl)-5-chloro-8-fluoro-4-oxoquinazolin-3(4H)-yl)benzamide], the IC50 turned out to be 1 nM in assay [1], 360 nM in assay [2] and 10 nM in assay [3].

For `N#Cc1c(N)nc(N)nc1N[C@H](c1nc2c(F)ccc(Cl)c2c(=O)n1-c1cccc(C(N)=O)c1)C1CC1` [Compound 15, (S)-3-(5-chloro-2-(cyclopropyl((2,6-diamino-5-cyanopyrimidin-4-yl)amino)methyl)-8-fluoro-4-oxoquinazolin-3(4H)-yl)benzamide], the IC50 in assay [1] came out at 1 nM; in assay [2], 330 nM; in assay [3], 10 nM.

Regarding `NC(=O)c1cccc(-n2c([C@@H](Nc3nc(N)nc(N)c3Cl)C3CC3)nc3c(F)ccc(Cl)c3c2=O)c1` [Compound 16, (S)-3-(5-chloro-2-(cyclopropyl((2,6-diamino-5-chloropyrimidin-4-yl)amino)methyl)-8-fluoro-4-oxoquinazolin-3(4H)-yl)benzamide], the IC50 in assay [1] is 2 nM; in assay [2], 3200 nM; in assay [3], 17 nM.

As to `CC[C@H](Nc1nc(N)nc(N)c1C#N)c1nc2c(Cl)ccc(Cl)c2c(=O)n1-c1cccc(C(N)=O)c1` [Compound 18, (S)-3-(5,8-dichloro-2-(1-((2,6-diamino-5-cyanopyrimidin-4-yl)amino)propyl)-4-oxoquinazolin-3(4H)-yl)benzamide], the figures for the IC50 in assay [1], in assay [2] and in assay [3] were 0.5 nM, 1200 nM and 8 nM, respectively.

In the case of `CC[C@H](Nc1nc(N)nc(N)c1Cl)c1nc2c(Cl)ccc(Cl)c2c(=O)n1-c1cccc(C(N)=O)c1` [Compound 19, (S)-3-(5,8-dichloro-2-(1-((2,6-diamino-5-chloropyrimidin-4-yl)amino)propyl)-4-oxoquinazolin-3(4H)-yl)benzamide], the IC50 was 3 nM in assay [1], > 10000 nM in assay [2] and 28 nM in assay [3].

Take `CCC[C@H](Nc1nc(N)nc(N)c1Cl)c1nc2c(Cl)ccc(Cl)c2c(=O)n1-c1cccc(C(N)=O)c1` [Compound 21, (S)-3-(5,8-dichloro-2-(1-((2,6-diamino-5-chloropyrimidin-4-yl)amino)butyl)-4-oxoquinazolin-3(4H)-yl)benzamide]: the IC50 was 19 nM in assay [1], > 10000 nM in assay [2] and 196 nM in assay [3].

In the case of `CCC[C@H](Nc1nc(N)nc(N)c1C#N)c1nc2cccc(Cl)c2c(=O)n1-c1cccc(C(N)=O)c1` [Compound 22, (S)-3-(5-chloro-2-(1-((2,6-diamino-5-cyanopyrimidin-4-yl)amino)butyl)-4-oxoquinazolin-3(4H)-yl)benzamide], the values for the IC50 in assay [1], in assay [2] and in assay [3] were 0.7 nM, 300 nM and 7 nM, respectively.

Take `CCC[C@H](Nc1nc(N)nc(N)c1Cl)c1nc2cccc(Cl)c2c(=O)n1-c1cccc(C(N)=O)c1` [Compound 23, (S)-3-(5-chloro-2-(1-((2,6-diamino-5-chloropyrimidin-4-yl)amino)butyl)-4-oxoquinazolin-3(4H)-yl)benzamide]: the IC50 was 2 nM in assay [1], 3900 nM in assay [2] and 12 nM in assay [3].

For `C[C@H](Nc1nc(N)nc(C(F)F)c1C#N)c1nc2c(F)ccc(Cl)c2c(=O)n1-c1cccc(C(N)=O)c1` [Compound 24, (S)-3-(2-(1-((2-amino-5-cyano-6-(difluoromethyl)pyrimidin-4-yl)amino)ethyl)-5-chloro-8-fluoro-4-oxoquinazolin-3(4H)-yl)benzamide], the IC50 in assay [1] stood at 1 nM; in assay [2] it was 660 nM; in assay [3], 25 nM.

Consider `C[C@H](Nc1nc(N)nc(C(F)F)c1C#N)c1nc2cccc(Cl)c2c(=O)n1-c1cccc(C(N)=O)c1` [Compound 25, (S)-3-(2-(1-((2-amino-5-cyano-6-(difluoromethyl)pyrimidin-4-yl)amino)ethyl)-5-chloro-4-oxoquinazolin-3(4H)-yl)benzamide], for which the IC50 in assay [1] amounted to 1 nM; in assay [2] it was 700 nM; in assay [3] it was 24 nM.

With `C[C@H](Nc1nc(N)nc(C(F)F)c1C#N)c1nc2c(Cl)cc(F)cc2c(=O)n1-c1cccc(C(N)=O)c1` [Compound 26, (S)-3-(2-(1-((2-amino-5-cyano-6-(difluoromethyl)pyrimidin-4-yl)amino)ethyl)-8-chloro-6-fluoro-4-oxoquinazolin-3(4H)-yl)benzamide], the IC50 in assay [1] was 12 nM; in assay [2] it was 7200 nM; in assay [3], 313 nM.
